According to publication PMC6156138, “Combination of a Latency-Reversing Agent With a Smac Mimetic Minimizes Secondary HIV-1 Infection in vitro” (Frontiers in Microbiology, 2018):

How the values were obtained:
cIAP = experiment: Determination of cIAP expression (western blotting); type: cell-based; settings: ACH-2 cells, 24 h; birinapant 50 nM, PEP005 5 nM, TNF-α 10 ng/ml
Experimental: ACH-2 cells (1 × 10^6 cells/ml) were treated with different concentrations of the drug for 24 h, and the cells were washed twice with PBS. Cells were homogenized by CelLytic M Cell Lysis Reagent (Sigma-Aldrich, St. Louis, MO, United States) containing a protease inhibitor cocktail (Nacalai Tesque, Kyoto, Japan) and were incubated at room temperature (RT) for 15 min. The cells were then centrifuged at 13,000 rpm for 15 min, and the supernatant of the whole cell lysate was collected. The bicinchoninic acid (BCA) protein assay (Thermo Scientific, Rockford, IL, United States) was used to measure the actual protein amount in the treated and untreated cells. The protein extracts were separated through sodium dodecyl sulfate polyacrylamide gel electrophoresis (SDS-PAGE) and then were blotted onto a Trans Blot Turbo polyvinylidene difluoride (PVDF) membrane (Bio-Rad, Hercules, CA, United States). Protein bands were visualized using 3,3′,5,5′-tetramethylbenzidine (TMB) solution (Wako Pure Chemical). The sources of the antibodies were as follows: c-IAP1 (D5G9), c-IAP2 (58C7), and XIAP (3B6) were purchased from Cell Signaling Technology (Danvers, MA, United States); β-actin (C4) was purchased from Santa Cruz Biotechnology.
Supplementary file Data_Sheet_5.PDF: FIGURE S5 Western blotting (WB) analysis for IAP family proteins in ACH-2 cells. Cells were exposed to birinapant (50 nM) in the presence or absence of PEP005 (5 nM), with TNF-α (10 ng/ml) co-treatment for 24 h, and cell lysates were used for WB analysis. Click here for additional data file.

TNF-α = TNF-α production in culture supernatants (ELISA); type: cell-based; settings: ACH-2 cells, PEP005 0–50 nM, 24 h
Experimental: The expression of TNF-α mRNA was measured as previously described ([Zhang et al., 2014]). For the detection of supernatant TNF-α levels, ACH-2 cells (2.5 × 10^5 cells/ml) were incubated with various concentrations of PEP005 (0–50 nM) for 24 h at 37°C. Culture supernatants were harvested and centrifuged to remove cellular debris. The production of TNF-α was measured by using a Human TNF alpha Platinum ELISA Kit (eBioscience, Hatfield, United Kingdom) according to the manufacturer’s instructions. The sensitivity of the assay was 2.3 pg/ml.
Supplementary file Data_Sheet_6.PDF: FIGURE S6 Elevation of supernatant TNF-α protein and mRNA levels in the presence of PEP005. (A) ACH-2 cells were exposed to PEP005, incubated for 24 h, supernatant was harvested, and TNF-α protein levels were measured using ELISA. (B) Changes in mRNA levels of TNF-α in PEP005-treated primary CD4^+ T-cells in eight HIV-1 patients (Supplementary Table S3). Cells were harvested after 24 h incubation. Click here for additional data file.

U1 cells = experiment: FACS analysis of active caspase-3 expression; type: cell-based; settings: 24 h, birinapant 50 nM, PEP005 5 nM, TNF-α 10 ng/ml
Experimental: Intracellular HIV-1 p24 levels and active form of caspase-3 expression were determined as previously described ([Hattori et al., 2009]; [Duro et al., 2010]; [Matsuda et al., 2015]). In brief, ACH-2 cells or U1 cells (2.5 × 10^5 cells/mL) were fixed with 1% paraformaldehyde/phosphate buffered saline (PBS) for 20 min and were permeabilized with Flow Cytometry Perm Buffer (TONBO biosciences, San Diego, CA, United States). After incubation on ice for 5 min, the cells were stained with anti-HIV-1 p24 (24-4)-FITC mAb (Santa Cruz Biotechnology, Dallas, TX, United States) and/or with Alexa Fluor 647-conjugated anti-active caspase-3 mAb (C92-605) (BD Pharmingen, San Diego, CA, United States) for 30 min on ice. Cells were then analyzed on a BD FACSVerse flow cytometer (BD Biosciences, Franklin Lakes, NJ, United States). The corrected data were analyzed with FlowJo software (Tree Star, San Carlos, CA, United States).
FIGURE 3 (A,B) ACH-2 (A) and U1 cells (B) were treated with birinapant (50 nM), PEP005 (5 nM), birinapant plus PEP005, TNF-α (10 ng/ml), and intracellular expression of caspase-3 was examined after 24 h of incubation. The percentage of active caspase-3 cells was determined by comparison with unstimulated cells. (C) ACH-2 cells after 24 h of PEP005 (0∼50 nM) treatment with or without birinapant (50 nM) were separately analyzed in p24^+ and p24^- populations for caspase-3 expression.

[1] = system: latent HIV-1-infected ACH-2 cells; experiment: HIV reactivation from latent cells: intracellular HIV-1 RNA (qRT-PCR); type: cell-based; settings: 24 h (Figure 1C)
Experimental: (§1) The reactivation of HIV-1 from latently infected cells was determined by the measurement of supernatant p24 antigen and intracellular HIV-1 RNA levels. ACH-2 cells or U1 cells (5 × 10^5 cells/mL) were placed in 96-well plates, and then the cells were incubated with different concentrations of drugs for 24 h to extract RNA and for 48 h to collect the supernatant. The increase in supernatant p24 antigen levels was measured using […] G1200 (Fujirebio, Tokyo, Japan). The total RNA was extracted using an RNeasy Mini Kit (Qiagen, Hilden, Germany), following the manufacturer’s protocols. The cDNA was synthesized using PrimeScript RT Master Mix (Takara Bio, Shiga, Japan), and quantitative real-time PCR analyses for the intracellular HIV-1 RNA were carried out with PowerUp^TM SYBR Green Master Mix (Applied Biosystems, Foster City, CA, United States). The oligonucleotide primers used were as follows: 5′-[…]-3′ (forward) and 5′-[…]-3′ (reverse) for HIV-RNA detection; 5′-[…]-3′ (forward) and 5′-[…]-3′ (reverse) for β-actin. The HIV-RNA expressions were normalized with that of β-actin, which was indicated as the relative quantity, and the increase in HIV-1 RNA levels in the presence of a drug was compared with that without a drug.
(§2) FIGURE 1 (A,B) The increase in viral production from ACH-2 cells (A) and U1 cells (B) was examined by supernatant p24 antigen levels on day 2. […]

[2] = system: latent HIV-1-infected U1 cells; experiment: as above; type: cell-based; settings: 24 h (Figure 1D)
Experimental: as §1, §2

J1.1 cells = experiment: Virus production in J1.1 cells (viral RNA copies in supernatant); type: cell-based, HIV-1; settings: birinapant combined with TNF-α 20 ng/mL, 48 h
Experimental: Cells were treated with birinapant with ( [drawing 1] ) or without ( [drawing 2] ) TNF-α (20 ng/mL). After 48 h incubation, culture supernatant was harvested, and viral RNA was extracted. Viral copy numbers in culture supernatant were measured by real-time RT-PCR. Click here for additional data file.

| Structure (SMILES) | cIAP expression (western blotting) (cIAP) | supernatant TNF-α level (TNF-α) | percentage of active caspase-3 cells (U1 cells) [%] | intracellular HIV-1 mRNA levels [1] | intracellular HIV-1 mRNA levels [2] | virus production (viral copy numbers in culture supernatant) (J1.1 cells) |
| --- | --- | --- | --- | --- | --- | --- |
| C/C=C(/C)C(=O)O[C@H]1C(C)=C[C@]23C(=O)[C@@H](C=C(CO)[C@@H](O)[C@]12O)[C@H]1[C@@H](C[C@H]3C)C1(C)C [PEP005, ingenol-3-angelate] | upregulation of cIAP-1 (and cIAP-2) | elevated | 10.8 | – | – | – |
| CC[C@H](NC(=O)[C@H](C)NC)C(=O)N1C[C@@H](O)C[C@H]1Cc1c(-c2[nH]c3cc(F)ccc3c2C[C@@H]2C[C@H](O)CN2C(=O)[C@H](CC)NC(=O)[C@H](C)NC)[nH]c2cc(F)ccc12 [Birinapant] | decreased expression of cIAP | – | – | only had a minor effect on HIV-1 reactivation | only had a minor effect on HIV-1 reactivation | suppresses virus production |
